Reference: patent publication US20230097253A1, “NOVEL QUINAZOLINE COMPOUND AS THERAPEUTIC AGENT FOR METABOLIC DISORDERS” (BIOWAY., INC, priority 2020, published 2023)

Columns and labels:
[1] = tested on: Huh7 cells induced with inflammatory response; assay: Protein expression levels in liver cells induced with inflammatory response (western blot); format: cell-based; conditions: Huh7 cells pretreated with 10 ng/ml IL-1β; 0.5, 2.5, 10 μM, 24 hours; FIG. 11
Description: To induce steatosis in Huh-7 cells in each well except for control cells, the Huh-7 cells were pretreated with 10 ng/ml IL-1p for 2 hr except for the control.
The cells in each well were treated with the compound of the present invention, BW-3290, 0.5 μM, 2.5 μM, and 10 μM and then cultured for 24 hours. All media were aspirated and the cells were gently washed 3 times with cold PBS.
(§1) A cold lysis buffer containing 150 mM sodium chloride (NaCl), 5 mM ethylenediaminetetraacetic acid (EDTA), pH 8.0, […] 4-(2-hydroxyethyl)-1-piperazineethanesulfonic acid (HEPES), 1% nonylphenoxypolyethoxylethanol (NP-40), 2 μg/mL aprotinin, 1 μM pepstatin A, 10 μM leupeptin, 1 mM sodium fluoride (NaF), 0.2 mM sodium orthovanadate ([…]), and 1 μM phenylmethylsulfonyl fluoride (PMSF) was added thereto.
A whole cell lysate was collected and gently pipetted at least 10 times to ensure complete lysis. The sample was incubated on ice for 20 minutes and centrifuged 4° C. at 13,000 rpm, for 20 minutes. The supernatant was collected, 5× sodium dodecyl sulfate (SDS) sample buffer containing 50 mM Tris-CI (pH 6.8), 2% SDS, 0.1% bromopheol blue, and 10% glycerol was added to the sample, and boiled at 95° C. for 5 minutes. […]
(§2) Images were acquired using an ImageQuant LAS 3000 (Fujifilm, Tokyo, Japan). Data were analyzed.

[2] = tested on: steatosis-induced Huh7 cells; assay: Protein expression for verification of multiple mode regulator, with and without AMPK inhibitor (western blot); format: cell-based
Description: To induce steatosis in Huh-7 cells in each well except for control cells, the Huh-7 cells were treated with PA bound to 2% BSA at a concentration of 250 μM except for the control, and the control cells were pretreated with 2% BSA without FA.
[…] The control cells and PA treated cells were treated with DMSO. All media were aspirated and the cells were gently washed 3 times with cold PBS.
as §1
A whole cell lysate was collected and gently pipetted at least 10 times to ensure complete lysis. The sample was incubated on ice for 20 minutes and centrifuged 4° C. at 13,000 rpm, for 20 minutes. The supernatant was collected, 5× sodium dodecyl sulfate (SDS) sample buffer containing 50 mM Tris-CI (pH 6.8), 2% SDS, 0.1% bromopheol blue, and 10% glycerol was added to the sample, and boiled at 95° C. for 5 minutes.
The wells of 10% SDS-polyacrylamide gel electrophoresis (SDS-PAGE) were loaded with the same amount of a protein along with the molecular weight marker. The gel was electrophoresed at 100 V for 30 minutes in an electrophoresis chamber (Bio-Rad Laboratories, Hercules, Calif., USA).
A polyvinylidene fluoride (PVDF) membrane (MilliporeSigma, Burlington, Mass., USA) was activated with methanol (MeOH) for 1 minute and washed with a transfer buffer containing 25 mM Tris, 190 mM glycine, and 20% MeOH. The gel was placed in the transfer buffer for 10 minutes.
The transfer sandwich (in the order of paper, gel, membrane, and paper) was assembled and it was checked whether no air bubbles were trapped in the transfer sandwich. […]
as §2

DIAMOND™ mouse model = assay: In-vivo activity, histopathological diagnosis (H&E and Oil-Red-O staining of liver tissue); conditions: DIAMOND mice, 16 mg/kg oral once daily for 8 weeks, FIG. 18
Description: The DIAMOND™ mouse model, an animal model prepared using a Western diet and sugar water, was used. The DIAMOND™ mice were induced with WDSW for 14 weeks, and 12 mice were used for the control group and 12 mice for the BW-3290 treatment group, and BW-3290 was orally administered at 16 mg/kg once daily for 8 weeks. An autopsy was performed at week 22, and blood collection and tissue storage were performed for the individuals in each group.
Hematoxylin & Eosin (H&E) staining and Oil-Red-O (ORO) staining were performed using liver tissue obtained after autopsy

[3] = Pharmacokinetic parameters after oral administration; format: in vivo, Sprague Dwaley (SD) rats; conditions: male SD rats, 10 mg/kg, FIG. 16
Description: An experiment was performed to measure the pharmacokinetic parameters of BW-3290 using three male Sprague Dwaley (SD) rats. As for BW-3290, a formulation with a composition of 95% water containing 5% DMSO and 20% HPbCD was used, and was orally administered at a concentration of 10 mg/kg. Blood samples were collected from the jugular vein at time points of 0.25, 0.5, 1, 4, 8, 10, 12, and 24 hours. The blood samples collected were centrifuged for 15 minutes at 4° C. at 2,500×g to secure plasma. Bioanalysis for the measurement of pharmacokinetic parameters was analyzed by LC-MS/MS.

## CC(C)C(Nc1ncnc2nc[nH]c12)c1nc2cccc(Cl)c2c(=O)n1-c1ccccc1 (stereo not shown) [BW-3290, 2-(1-((7H-purin-6-yl)amino)-2-methylpropyl)-5-chloro-3-phenylquinazolin-4(3H)-one]
[1]
  protein expression level of p-IKKα: decreased in a concentration-dependent manner
  protein expression level of p-NFκ: decreased in a concentration-dependent manner
[2]; 250 μM PA, 10 μM compound C (AMPK inhibitor), 10 and 20 μM BW-3290, 24 hours, FIG. 15
  activity of SIRT1 and AMPK (p-AMPK, p-ACC) when AMPK activity is inhibited: increases the activity of SIRT1 and AMPK
[2]; 0.5, 2.5, 10 μM, FIG. 13
  AMPK protein expression level: increase in a concentration-dependent manner
  SIRT1 protein expression level: increase in a concentration-dependent manner
DIAMOND™ mouse model; compared to the control group (VC)
  fat cells stained in red in liver tissue, ORO staining: reduced
DIAMOND™ mouse model; compared to the control group
  fat globules in liver tissue, H&E staining: reduced
[3]
  AUClast: excellent
  Cmax: excellent
[3]; plasma
  concentration after 12 hours after absorption: maintained to some extent
